From patent publication EP4768487A1, “FUSED LACTAM RING COMPOUND AND USE THEREOF” (Chengdu Zenitar Biomedical Technology Co., Ltd., priority 2023, dated 2025)
Where two headings read alike, the source gives them in different places.

Legend:
PARP1 = target: T1, PARP1 (Homo sapiens, UniProt P09874); assay: PARP1 enzyme assay (histone-coated plate, chemiluminescence); assay type: biochemical; conditions: PARP1 0.02 nM, DNA 0.8 nM, NAD+ 3.5 µM; read-out: PARP-1 IC50
T1 construct: purchased BPS 80501
T1 sequence (P09874 whole entry): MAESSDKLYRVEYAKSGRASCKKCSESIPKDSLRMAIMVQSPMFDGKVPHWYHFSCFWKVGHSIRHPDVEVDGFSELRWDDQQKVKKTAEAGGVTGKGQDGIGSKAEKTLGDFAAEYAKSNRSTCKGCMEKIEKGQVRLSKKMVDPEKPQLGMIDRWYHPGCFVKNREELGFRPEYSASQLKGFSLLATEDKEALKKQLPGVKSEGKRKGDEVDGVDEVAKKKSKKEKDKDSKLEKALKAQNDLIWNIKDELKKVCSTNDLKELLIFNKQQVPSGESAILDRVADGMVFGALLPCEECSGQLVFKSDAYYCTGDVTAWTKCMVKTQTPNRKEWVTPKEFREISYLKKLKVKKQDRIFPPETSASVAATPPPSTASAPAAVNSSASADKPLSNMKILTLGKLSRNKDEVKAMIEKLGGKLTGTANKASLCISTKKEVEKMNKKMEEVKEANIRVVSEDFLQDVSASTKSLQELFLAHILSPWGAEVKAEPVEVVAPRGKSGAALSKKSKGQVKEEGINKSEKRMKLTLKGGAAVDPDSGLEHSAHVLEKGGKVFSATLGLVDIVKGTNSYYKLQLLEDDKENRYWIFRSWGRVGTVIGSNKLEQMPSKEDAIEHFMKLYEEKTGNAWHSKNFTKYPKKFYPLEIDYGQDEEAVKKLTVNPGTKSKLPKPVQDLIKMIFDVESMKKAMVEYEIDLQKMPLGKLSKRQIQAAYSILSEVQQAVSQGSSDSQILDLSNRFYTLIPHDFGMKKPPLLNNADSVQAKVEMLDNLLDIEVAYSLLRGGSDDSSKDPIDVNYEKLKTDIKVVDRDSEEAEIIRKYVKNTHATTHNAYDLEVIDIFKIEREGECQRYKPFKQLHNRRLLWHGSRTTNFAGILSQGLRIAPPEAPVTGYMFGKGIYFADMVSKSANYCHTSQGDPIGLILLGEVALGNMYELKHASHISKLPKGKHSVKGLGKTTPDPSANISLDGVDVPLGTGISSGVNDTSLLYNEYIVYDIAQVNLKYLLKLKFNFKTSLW

[1] = system: BRCA wild-type DLD-1 cells; assay: Anti-proliferative activity against cells (CCK8): DLD-1; assay type: cell-based; conditions: Homo sapiens, 72 h + 96 h culture
Procedure, shortened: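 DLD-1 cells (1000/well) in RPMI-1640 with 10% FBS, treated 24 h after plating with PARPi at 0, 1 or 10 µM final. Cultured 72 h, medium exchanged with re-added PARPi, then a further 96 h; read-out by CCK8.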

[2] = Cerebrospinal fluid and plasma distribution in vivo; conditions: rat, male rats, intravenous 5 mg/kg, n = 1
Method: Experimental procedures: The compound was weighed out, a small amount of DMSO was added, and then a sodium chloride solution for injection was added to prepare a 5 mg·mL^-1 compound solution for later administration. […] 10 µL of the plasma and 10 µL of the cerebrospinal fluid were each added to a centrifuge tube, and 40 µL of acetonitrile containing 20 ng·mL^-1 internal standard SAHA was added for precipitation. […] The supernatant was collected and transferred to a sample vial for later analysis. Range of standard curve: 1-1000 ng·mL^-1.

[3] = system: BRCA-mutated MDA-MB-436 cells; assay: Anti-proliferative activity against cells (CCK8): MDA-MB-436; assay type: cell-based; conditions: Homo sapiens, 72 h + 96 h culture
[4] = target: T2, hERG potassium ion channel (Homo sapiens, UniProt Q12809); assay: Inhibition of hERG potassium ion channel (Qpatch, CHO cells stably expressing hERG); assay type: cell-based; conditions: for inhibitory effects on the hERG potassium ion channel (in words): conclusion of Table 17; for inhibition at 2.5 min, 20 µM: human, CHO cells stably expressing hERG, read-out: Inhibition rate at 20 µM
T2 construct: expressed in transfected cells; host or cells: CHO cells
T2 sequence (Q12809 whole entry): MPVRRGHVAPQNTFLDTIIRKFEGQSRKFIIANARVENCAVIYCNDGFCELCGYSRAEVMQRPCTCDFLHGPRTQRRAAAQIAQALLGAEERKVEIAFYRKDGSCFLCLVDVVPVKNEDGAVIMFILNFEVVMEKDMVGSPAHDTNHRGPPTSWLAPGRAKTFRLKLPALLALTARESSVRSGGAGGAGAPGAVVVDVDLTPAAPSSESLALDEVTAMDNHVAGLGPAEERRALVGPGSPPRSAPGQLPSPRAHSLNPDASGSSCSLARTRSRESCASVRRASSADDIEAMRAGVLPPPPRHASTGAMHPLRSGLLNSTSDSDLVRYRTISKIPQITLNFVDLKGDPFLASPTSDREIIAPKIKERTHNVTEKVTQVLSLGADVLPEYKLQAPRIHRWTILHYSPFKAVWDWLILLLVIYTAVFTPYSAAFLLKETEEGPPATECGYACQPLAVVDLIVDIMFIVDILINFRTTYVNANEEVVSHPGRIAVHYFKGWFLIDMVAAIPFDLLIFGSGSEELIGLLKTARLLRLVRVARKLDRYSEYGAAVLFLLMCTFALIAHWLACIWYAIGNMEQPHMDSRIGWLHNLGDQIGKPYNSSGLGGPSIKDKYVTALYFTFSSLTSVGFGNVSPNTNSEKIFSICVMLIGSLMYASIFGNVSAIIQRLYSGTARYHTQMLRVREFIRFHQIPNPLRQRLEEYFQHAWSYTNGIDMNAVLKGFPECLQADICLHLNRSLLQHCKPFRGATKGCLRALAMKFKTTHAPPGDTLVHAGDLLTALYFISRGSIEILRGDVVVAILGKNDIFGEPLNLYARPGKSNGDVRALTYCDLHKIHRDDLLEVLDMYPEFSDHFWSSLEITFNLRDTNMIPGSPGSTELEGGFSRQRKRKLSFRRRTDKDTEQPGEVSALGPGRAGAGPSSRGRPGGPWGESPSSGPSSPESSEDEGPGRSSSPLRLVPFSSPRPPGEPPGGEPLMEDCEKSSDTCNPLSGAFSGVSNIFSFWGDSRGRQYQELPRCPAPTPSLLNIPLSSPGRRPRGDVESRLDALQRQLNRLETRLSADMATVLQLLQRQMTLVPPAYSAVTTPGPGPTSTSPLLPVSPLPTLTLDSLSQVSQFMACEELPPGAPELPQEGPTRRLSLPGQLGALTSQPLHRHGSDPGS
Method: Cell culture and treatment: CHO cells stably expressing hERG were cultured in a cell culture flask and incubated in an incubator with 5% CO2 at 37 °C. When the cell density reached 60%-80%, the cell culture medium was removed by pipetting. The cells were washed once with PBS, and then Detachin was added for detachment. After complete detachment, a culture medium was added for neutralization. The cells were then centrifuged, and the supernatant was removed by pipetting. A culture medium was further added for resuspension, and the cell density was adjusted to (2-5) × 10^6 cells/mL for later use.
Compound preparation: The compound stock solution was diluted with 100% DMSO. Specifically, 10 µL of the compound stock solution was added to 20 µL of DMSO, followed by a 3-fold serial dilution to obtain 6 concentrations. 4 µL of each of the 6 compound solutions at different concentrations was taken and added to 396 µL of an extracellular fluid, resulting in a 100-fold dilution to obtain 6 intermediate concentrations. Then, 80 µL of each of the 6 intermediate-concentration compound solutions was taken and added to 320 µL of an extracellular fluid, resulting in a 5-fold dilution to achieve the final test concentrations. The highest test concentration was 40 µM. […] DMSO at this concentration has no effect on the hERG potassium channel. During the compound preparation, the entire dilution process was completed by a Bravo instrument.
Electrophysiological recording process: The single-cell high-impedance sealing and whole-cell mode formation processes were all completed automatically by a Qpatch instrument. After achieving the whole-cell recording mode, the cells were clamped at -80 mV. Before a 5-second +40 mV depolarizing stimulus was applied, a 50-millisecond -50 mV prepulse voltage was first applied. The potential was then repolarized to -50 mV and held for 5 s, and finally returned to -80 mV. This voltage stimulation was applied every 15 s. After 2 min of recording, the extracellular fluid was administered, followed by recording for 5 min. Then, the compound administration process began, starting from the lowest test compound concentration. Each test concentration was applied for 2.5 min. After all the concentrations were applied consecutively, the positive control compound, 3 µM Cisapride, was administered. At least 3 cells (n ≥ 3) were tested for each concentration.
Data processing: Data analysis and processing were performed using GraphPad Prism 5.0 and Excel software. The IC50 of the compound was calculated using GraphPad Prism 5 software by equation fitting as follows: Y = Bottom + (Top−Bottom)/(1+10^(∧)((LogIC50−X)*HillSLope)) [formula] where X is the Log value of the test concentration of the test sample, Y is the inhibition percentage at the corresponding concentration, and Bottom and Top are the minimum and maximum inhibition percentages, respectively. Table 17. Results of inhibition of hERG potassium ion channel by compounds

[5] = cerebrospinal fluid, read-out: Cerebrospinal fluid

Row | IC50 [3] | Structure (SMILES) | IC50 (PARP1) | IC50 [1] | concentration at 0.25 h [2, 5] | concentration at 2 h [2, 5] | concentration at 0.25 h ([2]; plasma, read-out: Plasma) | concentration at 2 h ([2]; plasma, read-out: Plasma) | inhibitory effects on the hERG potassium ion channel (in words) [4] | inhibition at 2.5 min, 20 µM [4]
1 | – | CNC(=O)c1ccc(N2CCN(CC3Cc4[nH]c(=O)c(C)cc4CO3)CC2)c(F)n1 (stereo not shown) [Example 39, 6-Fluoro-N-methyl-5-(4-((3-methyl-2-oxo-1,5,7,8-tetrahydro-2H-pyrano[4,3-b]pyridin-7-yl)methyl)piperazin-1-yl)picolinamide] | 50 to 500 nM | > 1000 nM | 103 ng/g | 26 ng/g | 8200 ng/mL | 4890 ng/mL | – | –
2 | 3.5 nM | Cc1cc2c([nH]c1=O)CC(CN1CCN(c3ccc(C(=O)NC4CC4)nc3Cl)CC1)OC2 (stereo not shown) [Example 62, 6-Chloro-N-cyclopropyl-5-(4-((3-methyl-2-oxo-1,5,7,8-tetrahydro-2H-pyrano[4,3-b]pyridin-7-yl)methyl)piperazin-1-yl)picolinamide] | ≤ 50 nM | > 1000 nM | – | – | – | – | Conclusion: Compounds 2, 6, 45, 62, 67, 74, 83, 87, etc., of the present disclosure exhibited relatively weak inhibitory effects on the hERG potassium ion channel. | 49.8%
3 | – | CNC(=O)c1ccc(N2CCN(CC3COc4cc(C)c(=O)[nH]c4C3)CC2)c(F)n1 (stereo not shown) [Example 101, 6-Fluoro-N-methyl-5-(4-((7-methyl-6-oxo-3,4,5,6-tetrahydro-2H-pyrano[3,2-b]pyridin-3-yl)methyl)piperazin-1-yl)picolinamide] | ≤ 50 nM | > 1000 nM | 52 ng/g | 8 ng/g | 2820 ng/mL | 592 ng/mL | – | –
4 | 15.5 nM | CNC(=O)c1ccc(N2CCN(CC3Cc4[nH]c(=O)c(C)c(C)c4CO3)CC2)c(Cl)n1 (stereo not shown) [Example 100, 6-Chloro-5-(4-((3,4-dimethyl-2-oxo-1,5,7,8-tetrahydro-2H-pyrano[4,3-b]pyridin-7-yl)methyl)piperazin-1-yl)-N-methylpicolinamide] | ≤ 50 nM | > 1000 nM | – | – | – | – | – | –
5 | 15 nM | CNC(=O)c1ccc(N2CCN(CC3Cc4[nH]c(=O)c(C5CC5)cc4CO3)CC2)c(Cl)n1 (stereo not shown) [Example 73, 6-Chloro-5-(4-((3-cyclopropyl-2-oxo-1,5,7,8-tetrahydro-2H-pyrano[4,3-b]pyridin-7-yl)methyl)piperazin-1-yl)-N-methylpicolinamide] | 50 to 500 nM | > 1000 nM | – | – | – | – | – | –
6 | – | CNC(=O)c1ccc(N2CCN(CC3Cc4[nH]c(=O)c(Cl)cc4CO3)CC2)c(F)n1 (stereo not shown) [Example 64, 5-(4-((3-Chloro-2-oxo-1,5,7,8-tetrahydro-2H-pyrano[4,3-b]pyridin-7-yl)methyl)piperazin-1-yl)-6-fluoro-N-methylpicolinamide] | 50 to 500 nM | > 1000 nM | 102 ng/g | 0 ng/g | 1620 ng/mL | 503 ng/mL | – | –
7 | 140 nM | CNC(=O)c1ccc(N2CCN(C[C@H]3CCc4nc(C5CC5)c(=O)[nH]c4C3)CC2)cn1 [Example 58, (S)-5-(4-((2-Cyclopropyl-3-oxo-3,4,5,6,7,8-hexahydroquinoxalin-6-yl)methyl)piperazin-1-yl) -N-methylpicolinamide] | ≤ 50 nM | > 1000 nM | – | – | – | – | – | –
8 | 360 nM | CNC(=O)c1ccc(C2CCN(CC3Cc4[nH]c(=O)c(C5CC5)cc4CO3)CC2)c(F)n1 (stereo not shown) [Example 61, 5-(1-((3-Cyclopropyl-2-oxo-1,5,7,8-tetrahydro-2H-pyrano[4,3-b]pyridin-7-yl)methyl)piperidin-4-yl)-6-fluoro-N-methylpicolinamide] | 50 to 500 nM | > 1000 nM | – | – | – | – | – | –
9 | 4 nM | CCc1cc2c([nH]c1=O)CC(CN1CCN(c3ccc(C(=O)NC4CC4)nc3)CC1)OC2 (stereo not shown) [Compound 4, N-Cyclopropyl-5-(4-((3-ethyl-2-oxo-1,5,7,8-tetrahydro-2H-pyrano[4,3-b]pyridin-7-yl)methyl)piperazin-1-yl) picolinamide] | ≤ 50 nM | > 1000 nM | – | – | – | – | – | –
10 | 4 nM | CNC(=O)c1ccc(N2CCN(C[C@H]3CCc4nc(C)c(=O)[nH]c4C3)CC2)c(C)n1 [Example 47, (S)-N,6-Dimethyl-5-(4-((2-methyl-3-oxo-3,4,5,6,7,8-hexahydroquinoxalin-6-yl)methyl)piperazin-1-yl)picolinamide] | ≤ 50 nM | > 1000 nM | 64 ng/g | 13 ng/g | 1010 ng/mL | 43 ng/mL | – | –
11 | – | [2H]C([2H])([2H])NC(=O)c1ccc(N2CCN(C[C@H]3CCc4nc(C)c(=O)[nH]c4C3)CC2)c(F)n1 [Example 82, (S)-6-Fluoro-N-(methyl-d3)-5-(4-((2-methyl-3-oxo-3,4,5,6,7,8-hexahydroquinoxalin-6-yl)methyl)piperazin-1-yl)picolinamide] | – | > 1000 nM | 119 ng/g | 0 ng/g | 2740 ng/mL | 77 ng/mL | – | –

Row | Structure (SMILES) | IC50 [3] | IC50 (PARP1) | IC50 [1] | concentration at 0.25 h [2, 5] | concentration at 2 h [2, 5] | concentration at 0.25 h ([2]; plasma, read-out: Plasma) | concentration at 2 h ([2]; plasma, read-out: Plasma) | inhibitory effects on the hERG potassium ion channel (in words) [4] | inhibition at 2.5 min, 20 µM [4]
12 | CCc1cc2c([nH]c1=O)CC(CN1CC=C(c3ccc(C(=O)NC)nc3F)CC1)OC2 (stereo not shown) [Compound 6, 1'-((3-Ethyl-2-oxo-1,5,7,8-tetrahydro-2H-pyrano[4,3-b]pyridin-7-yl)methyl)-2-fluoro -N-methyl-1',2',3',6'-tetrahydro-[3,4'-bipyridine]-6-carbo xamide] | 1 nM | ≤ 50 nM | > 1000 nM | – | – | – | – | Conclusion: Compounds 2, 6, 45, 62, 67, 74, 83, 87, etc., of the present disclosure exhibited relatively weak inhibitory effects on the hERG potassium ion channel. | 7.97%
13 | CNC(=O)c1ccc(C2=CCN(CC3Cc4[nH]c(=O)c(C5CC5)cc4CO3)CC2)c(Cl)n1 (stereo not shown) [Example 69, 2-Chloro-1'-((3-cyclopropyl-2-oxo-1,5,7,8-tetrahydro-2H-pyrano[4,3-b]pyridin-7-yl)methyl)-N-methyl-1',2',3',6'-tetrahydro-[3,4'-bipyridine]-6-carboxamide] | 180 nM | 50 to 500 nM | > 1000 nM | – | – | – | – | – | –
14 | CNC(=O)c1ccc(C2=CCN(CC3Cc4[nH]c(=O)c(C(F)F)cc4CO3)CC2)c(F)n1 (stereo not shown) [Example 52, 1'-((3-(Difluoromethyl)-2-oxo-1,5,7,8-tetrahydro-2H-pyrano[4,3-b]pyridin-7-yl)methyl)-2-flu oro-N-methyl-1',2',3',6'-tetrahydro-[3,4'-bipyridine]-6-carboxamide] | 200 nM | 50 to 500 nM | > 1000 nM | – | – | – | – | – | –
15 | CCc1cc2c([nH]c1=O)CC(CN1CC=C(c3ccc(C(=O)NC)nc3)CC1)OC2 (stereo not shown) [Compound 5, 1'-((3-Ethyl-2-oxo-1,5,7,8-tetrahydro-2H-pyrano[4,3-b]pyridin-7-yl)methyl)-N-methyl-1',2',3',6'-tetrahydro-[3,4'-bipyridine]-6-carboxamide] | 7.5 nM | ≤ 50 nM | > 1000 nM | – | – | – | – | – | –
